Measurements taken from patent US20100070184A1, “METHOD FOR D[…] HIV TO PROTEASE INHIBITOR TREATMENT” (MONOGRAM BIOSCIENCES, INC., priority 2006, published 2010).

Test system: HIV-1 from the patient plasma sample
Experiment: PHENOSENSE HIV phenotypic assay, tipranavir IC50 fold change vs NL4-3 reference strain
Format: cell-based
Conditions: for MEAN tipranavir FC / MEDIAN tipranavir FC: 1411 patient samples
Method: In one embodiment, the phenotypic analysis is performed using PHENOSENSE™ (ViroLogic Inc., South San Francisco, Calif.). See Petropoulos et al., 2000, Antimicrob. Agents Chemother. 44:920-928; U.S. Pat. Nos. 5,837,464 and 6,242,187. PHENOSENSE™ is a phenotypic assay that achieves the benefits of phenotypic testing and overcomes the drawbacks of previous assays. Because the assay has been automated, PHENOSENSE™ offers higher throughput under controlled conditions. The result is an assay that accurately defines the susceptibility profile of a patient's HIV isolates to all currently available antiretroviral drugs, and delivers results directly to the physician within about 10 to about 15 days of sample receipt. PHENOSENSE™ is accurate and can obtain results with only one round of viral replication, thereby avoiding selection of subpopulations of virus. The results are quantitative, measuring varying degrees of drug susceptibility, and sensitive—the test can be performed on blood specimens with a viral load of about 500 copies/mL and can detect minority populations of some drug-resistant virus at concentrations of 10% or less of total viral population. Furthermore, the results are reproducible and can vary by less than about 1.4-2.5 fold, depending on the drug, in about 95% of the assays performed.
A resistance test vector (“RTV”) can then be constructed by incorporating the amplified viral gene sequences into a replication defective viral vector by using any method known in the art of incorporating gene sequences into a vector. In one embodiment, restrictions enzymes and conventional cloning methods are used. See Maniatis et al., 1989, Molecular Cloning: A Laboratory Manual, Cold Spring Harbor Laboratory, NY and Ausubel et al., 1989, Current Protocols in Molecular Biology, Greene Publishing Associates and Wiley Interscience, NY. In some embodiments, ApaI and PinAI restriction enzymes are used. Preferably, the replication defective viral vector is the indicator gene viral vector (“IGVV”). In some embodiments, the viral vector contains a means for detecting replication of the RTV. Preferably, the viral vector contains a luciferase expression cassette.
The assay can be performed by first co-transfecting host cells with RTV DNA and a plasmid that expresses the envelope proteins of another retrovirus, for example, amphotropic murine leukemia virus (MLV). Following transfection, virus particles can be harvested and used to infect fresh target cells. The completion of a single round of viral replication can be detected by the means for detecting replication contained in the vector. In one embodiment, the completion of a single round of viral replication results in the production of luciferase. Serial concentrations of anti-viral agents can be added at either the transfection step or the infection step.
Susceptibility to the anti-viral agent can be measured by comparing the replication of the vector in the presence and absence of the anti-viral agent. For example, susceptibility to the anti-viral agent can be measured by comparing the luciferase activity in the presence and absence of the anti-viral agent. Susceptible viruses would produce low levels of luciferase activity in the presence of anti-viral agents, whereas viruses with reduced susceptibility would produce higher levels of luciferase activity.
The phenotypic assay was conducted using the PHENOSENSE™ (Monogram Biosciences, Inc, South San Francisco, Calif.) HIV assay (Petropoulos et al., 2000, Antimicrob. Agents Chemother. 44:920-928; U.S. Pat. Nos. 5,837,464 and 6,242,187, and International Patent Application No. PCT/US06/05512). Plasma samples were collected from HIV-1-infected patients. IC50 values for tipranavir were obtained for the HIV-1 from the patient sample. This was compared to the IC50 for tipranavir against the NL4-3 (GenBank Accession No. AF324493) reference viral strain. […]

[1] = Kohlbrenner TPV mutation score 0
[2] = Kohlbrenner TPV mutation score 0, 4492 samples
[3] = Kohlbrenner TPV mutation score 1
[4] = Kohlbrenner TPV mutation score 1, 4492 samples
[5] = Kohlbrenner TPV mutation score 2
[6] = Kohlbrenner TPV mutation score 2, 4492 samples
[7] = Kohlbrenner TPV mutation score 3
[8] = Kohlbrenner TPV mutation score 3, 4492 samples
[9] = Kohlbrenner TPV mutation score 4
[10] = Kohlbrenner TPV mutation score 4, 4492 samples
[11] = Kohlbrenner TPV mutation score 5
[12] = Kohlbrenner TPV mutation score 5, 4492 samples
[13] = Kohlbrenner TPV mutation score 6
[14] = Kohlbrenner TPV mutation score 6, 4492 samples
[15] = Kohlbrenner TPV mutation score 7
[16] = Kohlbrenner TPV mutation score 7, 4492 samples
[17] = Kohlbrenner TPV mutation score 8-9
[18] = Kohlbrenner TPV mutation score 8, 4492 samples
[19] = Kohlbrenner TPV mutation score 9, 4492 samples
[20] = adjusted mutation score 3, training data with gag (n = 1916)
[21] = adjusted mutation score 3, validation data with gag (n = 1916)
[22] = adjusted mutation score 3.5, training data with gag (n = 1916)
[23] = adjusted mutation score 3.5, validation data with gag (n = 1916)
[24] = adjusted mutation score 4, training data with gag (n = 1916)
[25] = adjusted mutation score 4, validation data with gag (n = 1916)
[26] = adjusted mutation score 4.5, training data with gag (n = 1916)
[27] = adjusted mutation score 4.5, validation data with gag (n = 1916)
[28] = adjusted mutation score 5, training data with gag (n = 1916)
[29] = adjusted mutation score 5, validation data with gag (n = 1916)
[30] = adjusted mutation score 5.5, training data with gag (n = 1916)
[31] = adjusted mutation score 5.5, validation data with gag (n = 1916)
[32] = adjusted mutation score 6, training data with gag (n = 1916)
[33] = adjusted mutation score 6, validation data with gag (n = 1916)
[34] = adjusted mutation score 6.5, training data with gag (n = 1916)
[35] = adjusted mutation score 6.5, validation data with gag (n = 1916)
[36] = adjusted mutation score <3, training data with gag (n = 1916)
[37] = adjusted mutation score <3, validation data with gag (n = 1916)
[38] = adjusted mutation score >=7, training data with gag (n = 1916)
[39] = adjusted mutation score >=7, validation data with gag (n = 1916)
[40] = base mutation score 0, validation data (n = 2246)
[41] = base mutation score 1, validation data (n = 2246)
[42] = base mutation score 2, validation data (n = 2246)
[43] = base mutation score 3, validation data (n = 2246)
[44] = base mutation score 4, validation data (n = 2246)
[45] = base mutation score 5, validation data (n = 2246)
[46] = base mutation score 6, validation data (n = 2246)
[47] = base mutation score 7, validation data (n = 2246)
[48] = base mutation score 8, validation data (n = 2246)
[49] = base mutation score 9, validation data (n = 2246)
[50] = samples with 3 TPV mutations (Kohlbrenner score), 4492 samples

## CCC[C@@]1(CCc2ccccc2)CC(O)=C([C@H](CC)c2cccc(NS(=O)(=O)c3ccc(C(F)(F)F)cn3)c2)C(=O)O1 [TPV, tipranavir]
[1]
  MEAN tipranavir FC: 0.8
  MEDIAN tipranavir FC: 0.7
[2]
  Mean FC: 0.8
  Median FC: 0.7
[3]
  MEAN tipranavir FC: 1.0
  MEDIAN tipranavir FC: 0.8
[4]
  Mean FC: 1.1
  Median FC: 0.9
[5]
  MEAN tipranavir FC: 1.5
  MEDIAN tipranavir FC: 1.1
[6]
  Mean FC: 1.6
  Median FC: 1.1
[7]
  MEAN tipranavir FC: 3.1
  MEDIAN tipranavir FC: 1.6
[8]
  Mean FC: 3.1
  Median FC: 1.7
[9]
  MEAN tipranavir FC: 6.1
  MEDIAN tipranavir FC: 3.0
[10]
  Mean FC: 5.8
  Median FC: 2.9
[11]
  MEAN tipranavir FC: 11
  MEDIAN tipranavir FC: 5.7
[12]
  Mean FC: 10
  Median FC: 5.5
[13]
  MEAN tipranavir FC: 16
  MEDIAN tipranavir FC: 8.8
[14]
  Mean FC: 17
  Median FC: 10.7
[15]
  MEAN tipranavir FC: 32
  MEDIAN tipranavir FC: 12
[16]
  Mean FC: 24
  Median FC: 16
[17]
  MEAN tipranavir FC: 44
  MEDIAN tipranavir FC: 24
[18]
  Mean FC: 30
  Median FC: 31
[19]
  Mean FC: 42
  Median FC: 53
[20]
  mean TPV FC: 2.3
  median TPV FC: 1.5
[21]
  mean TPV FC: 1.8
  median TPV FC: 1.4
[22]
  mean TPV FC: 3.2
  median TPV FC: 1.5
[23]
  mean TPV FC: 2.3
  median TPV FC: 1.5
[24]
  mean TPV FC: 2.5
  median TPV FC: 2.0
[25]
  mean TPV FC: 2.6
  median TPV FC: 2.0
[26]
  mean TPV FC: 3.1
  median TPV FC: 2.2
[27]
  mean TPV FC: 3.5
  median TPV FC: 2.4
[28]
  mean TPV FC: 4.0
  median TPV FC: 2.8
[29]
  mean TPV FC: 4.4
  median TPV FC: 2.8
[30]
  mean TPV FC: 5.1
  median TPV FC: 2.4
[31]
  mean TPV FC: 5.2
  median TPV FC: 3.2
[32]
  mean TPV FC: 7.2
  median TPV FC: 4.9
[33]
  mean TPV FC: 8.6
  median TPV FC: 4.5
[34]
  mean TPV FC: 10.0
  median TPV FC: 6.3
[35]
  mean TPV FC: 12.6
  median TPV FC: 7.4
[36]
  mean TPV FC: 1.1
  median TPV FC: 0.9
[37]
  mean TPV FC: 1.1
  median TPV FC: 0.9
[38]
  mean TPV FC: 19.7
  median TPV FC: 13.4
[39]
  mean TPV FC: 20.1
  median TPV FC: 12.5
[40]
  mean TPV FC: 0.8
  median TPV FC: 0.7
[41]
  mean TPV FC: 1.1
  median TPV FC: 0.9
[42]
  mean TPV FC: 1.7
  median TPV FC: 1.2
[43]
  mean TPV FC: 3.4
  median TPV FC: 1.8
[44]
  mean TPV FC: 6.4
  median TPV FC: 3.2
[45]
  mean TPV FC: 10.7
  median TPV FC: 5.7
[46]
  mean TPV FC: 18
  median TPV FC: 11.7
[47]
  mean TPV FC: 24
  median TPV FC: 19
[48]
  mean TPV FC: 31
  median TPV FC: 33
[49]
  mean TPV FC: 41
  median TPV FC: 41
[50]
  samples with TPV FC greater than 2-fold: 44%
  samples with TPV FC greater than 4-fold: 19%
